From patent US11661439B2, “Peptide hydrogels and use thereof” (The United States of America, as represented by the …, priority 2017, dated 2023)
Non-standard residues stand in square brackets, D forms with d. Residues, ends and D or L forms follow the SMILES beside them.

Key:
[1] = test system: RFP-HDFs; experiment: Hydrogel-based in vivo cell delivery with RFP fluorescence imaging; set-up: species or system athymic nude mice
From the text: In vivo studies. Six- to eight-week-old non-tumor bearing female athymic nude mice were used for this experiment (n=3). Animal care was in accordance with the procedures outlined in the Guide for Care and Use of Laboratory Animals (National Research Council, 1996; National Academy Press, Washington, D.C.) and animal protocols were approved by the Frederick National Laboratory for Cancer Research (FNLCR) Institutional Animal Care and Use Committee.
Hydrogel-based in vivo cell transplantation. RFP-HDFs were encapsulated in 0.5 wt % AcVES3-RGDV at 10^7 cells mL^−1 as described in the 3D cell culture section. After gelation, the cell-peptide gel (10^6 cells per 100 μL) was injected into the left dorsal region of the mouse and as a control, RFP-HDF suspension in serum-free DMEM (10^6 cells per 100 μL) was injected into the right dorsal region of the mouse.
In vivo fluorescence imaging. Multispectral fluorescence imaging was performed daily (Monday-Friday) for 42 days using a Maestro Flex imager (PerkinElmer). Briefly, mice were anesthetized for 3-4 minutes in an induction chamber with 3% isoflurane with filtered air (0.2 μm filter) used as a carrier at a flow rate of 1 liter per minute. After isoflurane induction, the mice were transferred to an imaging chamber, where isoflurane was reduced to 2% and O2 was used as a carrier. The imaging platform was kept at 37° C. to maintain the mouse's internal temperature. Image acquisition (Maestro software, ver. 2.10.0) of the RFP fluorescence signal utilized a 533±26 nm excitation filter (placed in front of the 300 W xenon excitation source), a 580 nm long-pass filter (placed in front of the CCD) and implementing a multispectral imaging acquisition of 550-720 nm range, 10 nm increment, auto exposure (typically 0.5-5 seconds per emission wavelength), with a 2×2 pixel binning, resulting in a stack of images (image cube). RFP signal was distinguished from the tissue autofluorescence by employing vendor specified unmixing protocol. Quantitative analysis was performed by drawing a standard circular region of interest (ROI) over the injection site of the unmixed RFP component image. The total RFP signal (scaled counts second^−1) within each ROI was measured and plotted as a function of time.
Collection of RFP-HDFs from the tissue graft. After in vivo imaging on day 42, mice were euthanized using CO2 and ex vivo images (Maestro Software) were acquired by exposing the cell-peptide gel injection site. Image acquisition and processing were performed with the same parameters as performed for in vivo imaging as stated above. Utilizing the unmixed RFP image to guide resecting the RFP-positive tissue, the RFP positive cells were resected and then homogenized by squeezing them through a cell strainer. The collected cells were then cultured on a tissue culture plate with FBS-supplemented DMEM for 10 days and observed using an EVOS FL Auto Cell Imaging System.

[2] = test system: human dermal fibroblasts (HDFs); experiment: 2D cell culture of HDFs on gel surfaces; assay type: cell-based; details: for cell adhesion of HDFs on gel surface: Essential 8 Medium or serum-free DMEM
Experimental: 2D cell culture on peptide gels. Peptides were initially dissolved in water at 1 wt % on ice and mixed with an equal volume of ice-cold 2×HEPES buffer (50 mM HEPES, 300 mM NaCl, pH 7.4). The peptide solution (50 μL per well) was transferred to a non-tissue culture treated 96-well plates and incubated at 37° C. to initiate gelation. After 1 hour, HDFs (2×10^4 cells per 200 μL, per well) in serum-free DMEM, 10% FBS supplemented DMEM, or Essential 8 Medium (Thermo Fisher Scientific) were seeded on the peptide gels and cultured for 4 days. Bovine type I collagen gels (0.3 wt %, 50 μL per well) were prepared in 96-well plates following manufacturer's instructions.
Cell viability assay. Cell viability was evaluated by live and dead cell staining after 2D and 3D cell culture. Serum-free DMEM containing 1 μM calcein-AM and 2 μM ethidium homodimer-1 was added to the cells (200 μL per well for 2D culture and 500 μL each to the top and bottom of the gels for 3D culture). After incubation at 37° C. for 30 min, live and dead cells were visualized using EVOS FL Auto Cell Imaging System (Thermo Fisher Scientific). For the pseudo-colored composite image of varying heights of encapsulated cells, images of the live-stained cells were captured every 5 μm of height. Then Z-stack images for each 100 μm were flattened using the EVOS software, and the flattened images were pseudo-colored and merged using ImageJ.
Cell proliferation assay. A cell proliferation assay was performed using Cell Counting Kit-8 (CCK-8, Dojindo Molecular Technologies) for 2D and 3D cell culture. Serum-free DMEM containing 10% CCK-8 was added to the gels (200 μL per well for 2D culture; 500 μL to the top of the gels for 3D culture) and incubated for 2 hours at 37° C. Subsequently, media were transferred to 96-well plates (150 μL per well) and their absorbance measured at 450 nm relative to control viabilities from day 0 for 2D cell culture and day 1 for 3D cell culture. Experiments were performed in triplicate.
Cytoskeleton staining. For 2D cell culture, the peptide and collagen gels (70 μL) were prepared as described above on the glass bottom of 35 mm dishes (7 mm glass diameter, MatTek). HDFs in Essential 8 Medium (1.5×10^5 cells per 3 mL) were added to the dishes and incubated at 37° C. for 24 hours. Cells were fixed and permeabilized with 4% paraformaldehyde and 0.1% Triton X-100 in PBS for 15 min, and then blocked with 1% BSA in PBS. Cells were incubated with anti-vinculin antibody (hVIN-1, Sigma) for 1 hour at room temperature. Then, a goat anti-mouse IgG (H+L) cross-adsorbed secondary antibody, Rhodamine Red-X (2 μg mL^−1, Thermo Fisher Scientific), Alexa Fluor 488 phalloidin (5 units mL^−1, Thermo Fisher Scientific), and Hoechst 33342 (5 μg mL^−1, Invitrogen) in PBS were added to the dishes and incubated for 1 hour at room temperature. After washing, cells were visualized using an EVOS FL Auto Cell Imaging System.

CC(=O)N[C@H](C(=O)N[C@@H](CCC(=O)O)C(=O)N[C@H](C(=O)N[C@@H](CO)C(=O)N[C@H](C(=O)N[C@@H](CO)C(=O)N[C@H](C(=O)N[C@@H](CCC(=O)O)C(=O)N[C@H](C(=O)N1CCC[C@@H]1C(=O)N1CCC[C@H]1C(=O)N[C@H](C(=O)N[C@@H](CCC(=O)O)C(=O)N[C@H](C(=O)N[C@@H](CO)C(=O)N[C@H](C(=O)N[C@@H](CCC(=O)O)C(=O)N[C@H](C(=O)N[C@@H](CCC(=O)O)C(=O)N[C@H](C(=O)NCC(=O)NCC(=O)NCC(=O)NCC(=O)N[C@@H](CCCNC(=N)N)C(=O)NCC(=O)N[C@@H](CC(=O)O)C(=O)N[C@H](C(N)=O)C(C)C)C(C)C)C(C)C)C(C)C)C(C)C)[C@@H](C)O)C(C)C)C(C)C)C(C)C)C(C)C)C(C)C [AcVES3-RGDV] (Ac-VEVSVSVEV[dP]PTEVSVEVEVGGGGRGDV-NH2)
retention of cells after initial injection ([1]; 10^6 RFP-HDFs per 100 μL gel): over 40 days
slowing of dissipation of injected cells versus cell suspension control ([1]; 10^6 RFP-HDFs per 100 μL, dorsal injection, from slopes of the lines): ~6 fold
RFP signal still detected at injection site ([1]; day 42): approximately 2%
inflammation around the injection site ([1]; day 42, dissected subcutaneous tissue): no apparent inflammation
localization, retention and engraftment of delivered cells ([1]; mouse, in vivo): dramatically enhance localization and retention of the delivered cells and also support engraftment
cell proliferation of HDFs, 2D culture ([2]; Essential 8 Medium, up to day 4): proliferated to a similar degree as cells on collagen gels
cytoskeleton organization and focal adhesions ([2]; day 1, Essential 8 Medium): promoted organization of actin stress fibers and focal contacts
cell adhesion of HDFs on gel surface ([2]; day 1): strongly attached and spread
cell adhesion of HDFs on gel surface ([2]; day 4): remained adherent and viable
